Data: the NIST ThermoML archive (doi:10.1016/j.jct.2013.01.005)
Numbers after ± are expanded uncertainties.

Experiment: activity coefficient (dimensionless); of the first substance listed, at infinite dilution; xn = mol fraction of the nth substance listed
Conditions: 101 kPa, Liquid, Chromatography, x1 = 0

Row | Structure (SMILES) | activity coefficient (308.15 K) | activity coefficient (318.15 K) | activity coefficient (328.15 K) | activity coefficient (338.15 K) | activity coefficient (348.15 K) | activity coefficient (358.15 K)
1 | CCCCCCCCC [nonane] + CCCCCC[N+]1(C)CCCCC1.O=S(=O)([N-]S(=O)(=O)C(F)(F)F)C(F)(F)F | 16.9 ± 1.2 | 16.4 ± 1.1 | 15.7 ± 1.1 | 15.3 ± 1 | 14.6 ± 1 | 14.1 ± 1
2 | CCCCCCCCC [nonane] + CCCCC[N+]1(C)CCCCC1.O=S(=O)([N-]S(=O)(=O)C(F)(F)F)C(F)(F)F | 24.2 ± 1.7 | 22.4 ± 1.5 | 21.1 ± 1.4 | 19.9 ± 1.4 | 19 ± 1.3 | 18 ± 1.2
3 | C=CCCCCCC [oct-1-ene] + CCCCCC[N+]1(C)CCCCC1.O=S(=O)([N-]S(=O)(=O)C(F)(F)F)C(F)(F)F | 7.72 ± 0.53 | 7.6 ± 0.52 | 7.49 ± 0.51 | 7.37 ± 0.5 | 7.27 ± 0.5 | 7.2 ± 0.49
4 | C=CCCCCCC [oct-1-ene] + CCCCC[N+]1(C)CCCCC1.O=S(=O)([N-]S(=O)(=O)C(F)(F)F)C(F)(F)F | 9.9 ± 0.68 | 9.65 ± 0.66 | 9.28 ± 0.63 | 8.94 ± 0.61 | 8.77 ± 0.6 | 8.47 ± 0.58
5 | CCCCCCCC [octane] + CCCCCC[N+]1(C)CCCCC1.O=S(=O)([N-]S(=O)(=O)C(F)(F)F)C(F)(F)F | 12.9 ± 0.9 | 12.7 ± 0.9 | 12.1 ± 0.8 | 11.8 ± 0.8 | 11.3 ± 0.8 | 10.9 ± 0.7
6 | CCCCCCCC [octane] + CCCCC[N+]1(C)CCCCC1.O=S(=O)([N-]S(=O)(=O)C(F)(F)F)C(F)(F)F | 18.2 ± 1.2 | 16.9 ± 1.2 | 15.9 ± 1.1 | 15.1 ± 1 | 14.4 ± 1 | 13.7 ± 0.9
7 | CCCCCO [pentan-1-ol] + CCCCCC[N+]1(C)CCCCC1.O=S(=O)([N-]S(=O)(=O)C(F)(F)F)C(F)(F)F | 2.44 ± 0.17 | 2.23 ± 0.15 | 2.05 ± 0.14 | 1.92 ± 0.13 | 1.8 ± 0.12 | 1.71 ± 0.11
8 | CCCCCO [pentan-1-ol] + CCCCC[N+]1(C)CCCCC1.O=S(=O)([N-]S(=O)(=O)C(F)(F)F)C(F)(F)F | 2.5 ± 0.17 | 2.37 ± 0.16 | 2.2 ± 0.15 | 2.03 ± 0.14 | 1.94 ± 0.13 | 1.79 ± 0.12
9 | CCCC(C)=O [pentan-2-one] + CCCCCC[N+]1(C)CCCCC1.O=S(=O)([N-]S(=O)(=O)C(F)(F)F)C(F)(F)F | 0.573 ± 0.041 | 0.581 ± 0.041 | 0.596 ± 0.042 | 0.613 ± 0.043 | 0.632 ± 0.044 | 0.646 ± 0.044
10 | CCCC(C)=O [pentan-2-one] + CCCCC[N+]1(C)CCCCC1.O=S(=O)([N-]S(=O)(=O)C(F)(F)F)C(F)(F)F |  | 0.611 ± 0.043 | 0.629 ± 0.043 | 0.643 ± 0.044 | 0.666 ± 0.045 | 0.682 ± 0.046
11 | CCCCC [pentane] + CCCCCC[N+]1(C)CCCCC1.O=S(=O)([N-]S(=O)(=O)C(F)(F)F)C(F)(F)F | 5.95 ± 0.41 | 5.73 ± 0.39 | 5.42 ± 0.37 | 5.3 ± 0.36 | 5.2 ± 0.35 | 4.95 ± 0.34
12 | CCCO [propan-1-ol] + CCCCCC[N+]1(C)CCCCC1.O=S(=O)([N-]S(=O)(=O)C(F)(F)F)C(F)(F)F | 2.05 ± 0.14 | 1.83 ± 0.12 | 1.67 ± 0.11 | 1.53 ± 0.1 | 1.43 ± 0.09 | 1.33 ± 0.09
13 | CCCO [propan-1-ol] + CCCCC[N+]1(C)CCCCC1.O=S(=O)([N-]S(=O)(=O)C(F)(F)F)C(F)(F)F | 2.05 ± 0.14 | 1.82 ± 0.12 | 1.68 ± 0.11 | 1.55 ± 0.1 | 1.46 ± 0.1 | 1.36 ± 0.09
14 | C1CCOC1 [tetrahydrofuran] + CCCCCC[N+]1(C)CCCCC1.O=S(=O)([N-]S(=O)(=O)C(F)(F)F)C(F)(F)F | 0.563 ± 0.04 | 0.579 ± 0.041 | 0.594 ± 0.042 | 0.612 ± 0.043 | 0.627 ± 0.043 | 0.635 ± 0.044
15 | C1CCOC1 [tetrahydrofuran] + CCCCC[N+]1(C)CCCCC1.O=S(=O)([N-]S(=O)(=O)C(F)(F)F)C(F)(F)F | 0.617 ± 0.043 | 0.627 ± 0.043 | 0.641 ± 0.044 | 0.653 ± 0.045 | 0.667 ± 0.045 | 0.682 ± 0.046
16 | c1ccsc1 [thiophene] + CCCCCC[N+]1(C)CCCCC1.O=S(=O)([N-]S(=O)(=O)C(F)(F)F)C(F)(F)F | 0.614 ± 0.043 | 0.627 ± 0.043 | 0.643 ± 0.044 | 0.655 ± 0.045 | 0.664 ± 0.045 | 0.675 ± 0.046
17 | c1ccsc1 [thiophene] + CCCCC[N+]1(C)CCCCC1.O=S(=O)([N-]S(=O)(=O)C(F)(F)F)C(F)(F)F | 0.646 ± 0.044 | 0.665 ± 0.045 | 0.673 ± 0.046 | 0.69 ± 0.046 | 0.708 ± 0.047 | 0.722 ± 0.048
18 | Cc1ccccc1 [toluene] + CCCCCC[N+]1(C)CCCCC1.O=S(=O)([N-]S(=O)(=O)C(F)(F)F)C(F)(F)F | 0.864 ± 0.055 | 0.894 ± 0.057 | 0.909 ± 0.058 | 0.934 ± 0.059 | 0.957 ± 0.06 | 0.969 ± 0.061
19 | Cc1ccccc1 [toluene] + CCCCC[N+]1(C)CCCCC1.O=S(=O)([N-]S(=O)(=O)C(F)(F)F)C(F)(F)F | 0.91 ± 0.058 | 0.919 ± 0.058 | 0.955 ± 0.06 | 0.975 ± 0.061 | 1.01 ± 0.06 | 1.05 ± 0.07
20 | O [water] + CCCCCC[N+]1(C)CCCCC1.O=S(=O)([N-]S(=O)(=O)C(F)(F)F)C(F)(F)F | 5.31 ± 0.36 | 4.46 ± 0.3 | 3.81 ± 0.26 | 3.26 ± 0.22 | 2.8 ± 0.19 | 2.45 ± 0.17
21 | O [water] + CCCCC[N+]1(C)CCCCC1.O=S(=O)([N-]S(=O)(=O)C(F)(F)F)C(F)(F)F | 5.05 ± 0.34 | 4.19 ± 0.29 | 3.7 ± 0.25 | 3.18 ± 0.22 | 2.78 ± 0.19 | 2.44 ± 0.17
